Experimental data taken from PMC3066269 (Bioorganic & medicinal chemistry, 2011).

Molecular target: hAChE-induced aggregation of Aβ1–40 (Homo sapiens, UniProt P22303)
Assay: hAChE-induced Aβ aggregation inhibition, thioflavin T fluorescence
Type: biochemical
Details: 100 μM compound, 50 μM Aβ1–40, 24 h, ThT; NA = Not active

hAChE-induced aggregation of Aβ1–40, sequence (P22303 32-614): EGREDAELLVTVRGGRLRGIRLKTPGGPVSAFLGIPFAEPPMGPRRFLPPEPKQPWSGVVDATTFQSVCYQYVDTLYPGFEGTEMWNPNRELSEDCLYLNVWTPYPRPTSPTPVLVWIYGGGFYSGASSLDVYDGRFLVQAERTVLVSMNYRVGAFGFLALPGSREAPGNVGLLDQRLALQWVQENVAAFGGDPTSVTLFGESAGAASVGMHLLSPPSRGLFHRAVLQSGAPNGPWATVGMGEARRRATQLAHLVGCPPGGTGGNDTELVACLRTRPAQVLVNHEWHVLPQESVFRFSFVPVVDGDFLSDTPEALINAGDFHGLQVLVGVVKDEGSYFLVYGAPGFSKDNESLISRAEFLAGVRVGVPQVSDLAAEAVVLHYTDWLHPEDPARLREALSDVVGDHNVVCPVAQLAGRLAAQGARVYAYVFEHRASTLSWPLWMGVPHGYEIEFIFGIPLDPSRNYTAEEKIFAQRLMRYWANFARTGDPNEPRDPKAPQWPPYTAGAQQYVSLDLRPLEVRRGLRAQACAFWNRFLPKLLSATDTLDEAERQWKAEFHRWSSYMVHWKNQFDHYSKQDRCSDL

Row | SMILES | Inhibition of hAChE-induced aggregation of Aβ1–40 at 100 μM ± SEM
1 | c1ccc(CNc2ccnc(N3CCCC3)n2)cc1 [7a, N-Benzyl-2-(pyrrolidin-1-yl)pyrimidin-4-amine] | did not provide anti-aggregation activity
2 | c1ccc(CNc2ccnc(N3CCSCC3)n2)cc1 [7c, N-Benzyl-2-thiomorpholinopyrimidin-4-amine] | either weak or no anti-aggregation activity
3 | c1ccc(CCNc2ccnc(N3CCSCC3)n2)cc1 [8c, N-Phenethyl-2-thiomorpholinopyrimidin-4-amine] | either weak or no anti-aggregation activity
